# ChEMBL document CHEMBL5696439 (Cancer Res, 2010)
# The source made the active and inactive calls. The rule behind the calls is not given here.
# Tests used:
# [1] = tested on: MDA-MB-361; assay: Antiproliferative activity against human MDA-MB-361 cells assessed as cell growth inhibition incubated for 1 days by MTS assay; type: functional, cell-based; conditions: MDA-MB-361, 24 h
# [2] = tested on: MDA-MB-361; assay: Antiproliferative activity against human MDA-MB-361 cells assessed as cell growth inhibition incubated for 2 days by MTS assay; type: functional, cell-based; conditions: MDA-MB-361, 48 h
# [3] = tested on: MDA-MB-361; assay: Antiproliferative activity against human MDA-MB-361 cells assessed as cell growth inhibition incubated for 3 days by MTS assay; type: functional, cell-based; conditions: MDA-MB-361, 72 h
# [4] = tested on: A498; assay: cells; conditions: Homo sapiens, A498, 24 h
# Description: Antiproliferative activity against human A498 cells assessed as cell growth inhibition incubated for 1 days by MTS assay
# [5] = tested on: A498; assay: cells; conditions: Homo sapiens, A498, 48 h
# Description: Antiproliferative activity against human A498 cells assessed as cell growth inhibition incubated for 2 days by MTS assay
# [6] = tested on: A498; assay: cells; conditions: Homo sapiens, A498, 72 h
# Description: Antiproliferative activity against human A498 cells assessed as cell growth inhibition incubated for 3 days by MTS assay
# [7] = tested on: MDA-MB-361; assay: Induction of apoptosis in human MDA-MB-361 cells assessed as increase in G1 phase at 5 micromol/L incubated for 24 hrs by FACS analysis relative to control; type: functional; conditions: dose 5 µmol/L, at 5 µM
# [8] = tested on: MDA-MB-361; assay: Induction of apoptosis in human MDA-MB-361 cells assessed as little increase in G1 phase at 5 micromol/L incubated for 12 hrs by FACS analysis relative to control; type: functional, cell-based; conditions: dose 5.0 µmol/L
# [9] = tested on: MDA-MB-361; assay: Induction of apoptosis in human MDA-MB-361 cells assessed as increase in caspase-3/caspase-7 activity at 1 to 6 uM incubated for 24 to 48 hrs; type: functional, cell-based; conditions: dose 1-6 µM, time 24-48 hrs
# [10] = tested on: LNCaP; assay: Induction of apoptosis in human LNCaP cells assessed as increase in caspase-3/caspase-7 activity at 1 to 6 uM incubated for 24 to 48 hrs; type: functional, cell-based; conditions: dose 1-6 µM, time 24-48 hrs
# [11] = tested on: MDA-MB-361; assay: Antiproliferative activity against human MDA-MB-361 cells assessed as suppression in cell growth at 10 micromol/L incubated for 3 days by MTS assay relative to control; type: functional; conditions: dose 10 µmol/L; time 3 day; at 10 µM
# [12] = tested on: LNCaP; assay: Antiproliferative activity against human LNCaP cells assessed as suppression in cell growth at 10 micromol/L incubated for 3 days by MTS assay relative to control; type: functional; conditions: dose 10 µmol/L; time 3 day; at 10 µM
# [13] = tested on: U-87 MG; assay: Antiproliferative activity against human U-87MG cells assessed as suppression in cell growth at 10 micromol/L incubated for 3 days by MTS assay relative to control; type: functional, U-87MG ATCC; conditions: dose 10 µmol/L; time 3 day; at 10 µM
# [14] = tested on: A549; assay: Antiproliferative activity against human A549 cells assessed as suppression in cell growth at 10 micromol/L incubated for 3 days by MTS assay relative to control; type: functional; conditions: dose 10 µmol/L; time 3 day; at 10 µM
# [15] = tested on: A498; assay: Antiproliferative activity against human A498 cells assessed as suppression in cell growth at 10 micromol/L incubated for 3 days by MTS assay relative to control; type: functional; conditions: dose 10 µmol/L; time 3 day; at 10 µM
# [16] = tested on: MDA-MB-361; assay: Induction of apoptosis in PI3K/mTOR hyperactive human MDA-MB-361 cells assessed as cell death at 0.001 to 100 micromol/L incubated for 24 hrs by FACS analysis; type: functional, cell-based; conditions: dose 0.001-100 µmol/L
# [17] = tested on: MDA-MB-361; assay: Induction of apoptosis in PI3K/mTOR hyperactive human MDA-MB-361 cells assessed as massive cell death at 0.001 to 100 micromol/L incubated for 48 hrs by FACS analysis; type: functional, cell-based; conditions: dose 0.001-100 µmol/L
# [18] = tested on: MDA-MB-361; assay: Induction of apoptosis in HER2 hyperactive human MDA-MB-361 cells assessed as cell death at 0.001 to 100 micromol/L incubated for 24 hrs by FACS analysis; type: functional, cell-based; conditions: dose 0.001-100 µmol/L
# [19] = tested on: MDA-MB-361; assay: Induction of apoptosis in HER2 hyperactive human MDA-MB-361 cells assessed as massive cell death at 0.001 to 100 micromol/L incubated for 48 hrs by FACS analysis; type: functional, cell-based; conditions: dose 0.001-100 µmol/L
# [20] = tested on: MDA-MB-361; assay: Induction of apoptosis in human MDA-MB-361 cells assessed as PARP cleavage at 0.5 to 5 micromol/L incubated for 48 hrs by Western blot analysis; type: functional, cell-based; conditions: dose 0.5-5 µmol/L
# [21] = biological target: T1, Serine/threonine-protein kinase mTOR (Homo sapiens, UniProt P42345); assay: Inhibition of mTOR in human MDA-MB-361 cells assessed as 4EBP1 phosphorylation at S65 level at 1 micromol/L incubated 16 hrs by westernblot analysis; type: cell-based; conditions: dose 1.0 µmol/L
# [22] = biological target: T1, Serine/threonine-protein kinase mTOR; assay: Inhibition of mTOR in human MDA-MB-361 cells assessed as 4EBP1 phosphorylation at T70 level at 1 micromol/L incubated 16 hrs by westernblot analysis; type: cell-based; conditions: dose 1.0 µmol/L
# [23] = biological target: T1, Serine/threonine-protein kinase mTOR; assay: Inhibition of mTOR in human MDA-MB-361 cells assessed as 4EBP1 phosphorylation at T37/46 level at 1 micromol/L incubated 16 hrs by westernblot analysis; type: cell-based; conditions: dose 1.0 µmol/L
# [24] = tested on: A498; assay: Antiproliferative activity against human A498 cells assessed as reduction in cell size at 1 micromol/L incubated for 48 hrs by Flow cytometry analysis relative to control; type: functional; set-up: scale not given: the % may be the effect or the level left; conditions: dose 1 µmol/L, at 1 µM
# [25] = tested on: MDA-MB-361; assay: Inhibition of protein synthesis in human MDA-MB-361 cells at 3 micromol/L incubated for 3 hrs by [3H] methionine incorporation based scintillation counter analysis; type: functional, cell-based; conditions: dose 3.0 µmol/L
# [26] = tested on: HEK293; assay: Antiproliferative activity against HEK293 cells assessed as reduction in polysomes at 0.5 micromol/L incubated for 16 hrs; type: functional, Homo sapiens; conditions: dose 0.5 µmol/L
# [27] = tested on: U-87 MG; assay: Antitumor activity against human U-87MG cells assessed as lactate production incubated for 24 hrs; type: functional, cell-based; conditions: U-87MG ATCC, dose 0.01-10 µmol/L
# [28] = tested on: U-87 MG; assay: Antitumor activity against human U-87MG cells assessed as reduction in lactate production at 1 micromol/L incubated for 24 hrs relative to control; type: functional, U-87MG ATCC; set-up: scale not given: the % may be the effect or the level left; conditions: dose 1 µmol/L, at 1 µM
# [29] = tested on: MDA-MB-361; assay: Antitumor activity against human MDA-MB-361 cells assessed as reduction in oxygen consumption rate at 1 micromol/L incubated for 1 hrs relative to control; type: functional; set-up: scale not given: the % may be the effect or the level left; conditions: dose 1 µmol/L, at 1 µM
# [30] = tested on: A549; assay: Antitumor activity against human A549 cells xenografted in female nude mouse model assessed as substantial regression in large tumor growth at 200 mg/kg, iv administered once a week; type: functional, organism-based
# [31] = tested on: A549; assay: Antitumor activity against VHL null-human A549 cells xenografted in female nude mouse model assessed as inhibition in tumor growth at 25 mg/kg, iv administered 5 times a week; type: functional, organism-based
smiles,measurement,setting,value
CC(=O)O[C@H]1C(=O)[C@@]2(C)[C@H]([C@H](OC(=O)c3ccccc3)[C@]3(O)C[C@H](OC(=O)[C@H](O)[C@@H](NC(=O)c4ccccc4)c4ccccc4)C(C)=C1C3(C)C)[C@]1(OC(C)=O)CO[C@@H]1C[C@@H]2O [PACLITAXEL],IC50,[1],> 0.15 µg/mL
same,IC50,[2],> 0.15 µg/mL
same,IC50,[3],4 ng/mL
same,IC50,[4],> 0.15 µg/mL
same,IC50,[5],> 0.15 µg/mL
same,IC50,[6],0.03 µg/mL
Oc1cccc(-c2nc(N3CCOCC3)c3oc4ncccc4c3n2)c1 [PI-103],Activity,[7],27%
same,Activity,[8],Active
same,Activity,[9],Active
same,Activity,[10],Active
CO[C@H]1C[C@@H]2CC[C@@H](C)[C@@](O)(O2)C(=O)C(=O)N2CCCC[C@H]2C(=O)O[C@H]([C@H](C)C[C@@H]2CC[C@@H](OC(=O)C(C)(CO)CO)[C@H](OC)C2)CC(=O)[C@H](C)/C=C(\C)[C@@H](O)[C@@H](OC)C(=O)[C@H](C)C[C@H](C)/C=C/C=C/C=C/1C [TEMSIROLIMUS],Activity,[11],<=50%
same,Activity,[12],<=50%
same,Activity,[13],<=50%
same,Activity,[14],<=50%
same,Activity,[15],<=50%
same,Activity,[16],inactive
same,Activity,[17],inactive
same,Activity,[18],inactive
same,Activity,[19],inactive
same,Activity,[20],inactive
same,inhibition,[21],Active
same,inhibition,[22],Active
same,inhibition,[23],inactive
same,Activity,[24],97%
same,inhibition,[25],inactive
same,Activity,[26],1.02
same,Activity,[27],Dose-Dependent Effect
same,Activity,[28],80%
same,Activity,[29],82%
same,Activity,[30],inactive
same,inhibition,[31],Active
